Reference: US10681909B2, “Herbicidal triazoles” (FMC Corporation, priority 2014, dated 2020)

How the values were obtained:
nutsedge, yellow = experiment: Test C preemergence; format: in vivo, Cyperus esculentus; details: for Plant response rating (scale of 0 to 100 where 0 is no effect and 100 is complete control): Nutsedge, Yellow, preemergence; for Nutsedge, Yellow plant response rating (0 to 100): Preemergence, visual rating after 13 to 15 d
Description: (§1) Seeds of plant species selected from blackgrass (Alopecurus myosuroides), ryegrass, Italian (Italian ryegrass, Lolium multiflorum), wheat (winter wheat, Triticum aestivum), galium (catchweed bedstraw, Galium aparine), corn (Zea mays), crabgrass, large (large crabgrass, Digitaria sanguinalis), foxtail, giant, (giant foxtail, Setaria faberii), johnsongrass (Sorghum halepense), lambsquarters (Chenopodium album), morningglory (Ipomoea coccinea), nutsedge, yellow (yellow nutsedge, Cyperus esculentus), pigweed (Amaranthus retroflexus), ragweed (common ragweed, Ambrosia elatior), soybean (Glycine max), barnyardgrass (Echinochloa crus-galli), oilseed rape (Brassica napus), waterhemp (common waterhemp, Amaranthus rudis), and velvetleaf (Abutilon theophrasti) were planted into a blend of loam soil and sand and treated preemergence with test chemicals formulated in a non-phytotoxic solvent mixture which included a surfactant. At the same time, plants selected from these crop and weed species and also chickweed (common chickweed, Stellaria media), oat, wild (wild oat, Avena fatua), and kochia (Kochia scoparia), were planted in pots containing Sunshine Redi-Earth® planting medium comprising spaghnum peat moss, vermiculite, starter nutrients and dolomitic limestone and treated with postemergence applications of test chemicals formulated in the same manner. Plants ranged in height from 2 to 18 cm (1- to 4-leaf stage) for postemergence treatments. […] A dash (-) response means no test result.

kochia = experiment: Test A postemergence; format: in vivo, Kochia scoparia; details: 0 to 100 scale (0 no effect, 100 complete control), approx. 10 d
Outline: (§2)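 Ratings reflect visual injury after ~10 d in greenhouse, 0 = no effect, 100 = complete control. Postemergence treatment was applied to one- to two-leaf seedlings; preemergence treatment was a directed soil spray at planting.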

field poppy [1] = experiment: Test D preemergence; format: in vivo, Papaver rhoeas; details: for Plant response rating: Field Poppy: scale 0 to 100
Description: (§3) Seeds of plant species selected from bluegrass (annual bluegrass, Poa annua), blackgrass (Alopecurus myosuroides), canarygrass (Phalaris minor), chickweed (common chickweed, Stellaria media), galium (catchweed bedstraw, Galium aparine), bromegrass, down (downy bromegrass, Bromus tectorum), Russian thistle (Salsola kali), field poppy (Papaver rhoeas), field violet (Viola arvensis), foxtail, green (green foxtail, Setaria viridis), deadnettle (henbit deadnettle, Lamium amplexicaule), ryegrass, Ital. (Italian ryegrass, Lolium multiflorum), kochia (Kochia scoparia), lambsquarters (Chenopodium album), oilseed rape (Brassica napus), pigweed (Amaranthus retroflexus), chamomile (scentless chamomile, Matricaria inodora), speedwell (bird's-eye speedwell, Veronica persica), barley, spring (spring barley, Hordeum vulgare), wheat, spring (spring wheat, Triticum aestivum), buckwheat, wild (wild buckwheat, Polygonum convolvulus), wild mustard (Sinapis arvensis), oat, wild (wild oat, Avena fatua), radish, wild (wild radish, Raphanus raphanistrum), […]), barley, winter (winter barley, Hordeum vulgare), and wheat, winter (winter wheat, Triticum aestivum) were planted into a silt loam soil and treated preemergence with test chemicals formulated in a non-phytotoxic solvent mixture which included a surfactant. At the same time, these species were planted in pots containing Sunshine Redi-Earth® planting medium comprising spaghnum peat moss, vermiculite, starter nutrients and dolomitic limestone and treated with postemergence applications of the test chemicals formulated in the same manner. Plants ranged in height from 2 to 18 cm (1- to 4-leaf stage). Treated plants and controls were maintained in a controlled growth environment for 14 to 21 d after which time all species were compared to controls and visually evaluated. […] A dash (-) response means no test result.

lambsquarters = experiment: Test D postemergence; format: in vivo, Chenopodium album; details: scale 0 to 100
Description: as §3

ragweed [2] = experiment: Test A preemergence; format: in vivo, Ambrosia elatior; details: 0 to 100 scale (0 no effect, 100 complete control)
Outline: as §2

windgrass = experiment: Test D postemergence; format: in vivo, Apera spica-venti; details: scale 0 to 100
Description: as §3

ragweed [3] = experiment: Test C preemergence; format: in vivo, Ambrosia elatior; details: for Ragweed plant response rating (0 to 100): Preemergence, visual rating after 13 to 15 d; for Plant response rating (scale of 0 to 100 where 0 is no effect and 100 is complete control): Ragweed, preemergence
Description: as §1

canarygrass = experiment: Test D preemergence; format: in vivo, Phalaris minor; details: for Plant response rating: Canarygrass: scale 0 to 100
Description: as §3

galium [4] = experiment: Test D preemergence; format: in vivo, Galium aparine; details: for Plant response rating: Galium: scale 0 to 100
Description: as §3

ryegrass, Ital. = experiment: Test D postemergence; format: in vivo, Lolium multiflorum; details: scale 0 to 100
Description: as §3

field poppy [5] = experiment: Test D postemergence; format: in vivo, Papaver rhoeas; details: scale 0 to 100
Description: as §3

galium [6] = experiment: Test C preemergence; format: in vivo, Galium aparine; details: for Plant response rating (scale of 0 to 100 where 0 is no effect and 100 is complete control): Galium, preemergence; for Galium plant response rating (0 to 100): Preemergence, visual rating after 13 to 15 d
Description: as §1

oat, wild = experiment: Test D postemergence; format: in vivo, Avena fatua; details: scale 0 to 100
Description: as §3

[7] = 16 g ai/ha, 0 is no effect, 100 is complete control

CCOc1nc(-c2ccccc2)nn1Cc1ccnc(C(F)(F)F)c1 [Compound 27]
Plant response rating (scale of 0 to 100 where 0 is no effect and 100 is complete control) (nutsedge, yellow; 125 g ai/ha): 35 | Plant response rating (scale of 0 to 100 where 0 is no effect and 100 is complete control) (nutsedge, yellow; 250 g ai/ha): 60 | Nutsedge, Yellow plant response rating (0 to 100) (nutsedge, yellow; 31 g ai/ha): 5 | Nutsedge, Yellow plant response rating (0 to 100) (nutsedge, yellow; 62 g ai/ha): 10 | Plant response rating, Kochia (kochia; 125 g ai/ha): 90 | Plant response rating, Kochia (kochia; 500 g ai/ha): 90 | Plant response rating (0 to 100), Field Poppy (field poppy [1]; [7]): 95 | Plant response rating: Field Poppy (field poppy [1]; 62 g ai/ha): 100 | Plant response rating: Field Poppy (field poppy [1]; 125 g ai/ha): 100 | Plant response rating: Lambsquarters (lambsquarters; 16 g ai/ha): 85 | Plant response rating: Lambsquarters (lambsquarters; 31 g ai/ha): 95 | Plant response rating: Lambsquarters (lambsquarters; 62 g ai/ha): 95 | Plant response rating: Lambsquarters (lambsquarters; 125 g ai/ha): 95 | Plant response rating, Ragweed (ragweed [2]; 125 g ai/ha): 90 | Plant response rating, Ragweed (ragweed [2]; 500 g ai/ha, approx. 10 d): 100 | Plant response rating: Windgrass (windgrass; 16 g ai/ha): 60 | Plant response rating: Windgrass (windgrass; 31 g ai/ha): 65 | Plant response rating: Windgrass (windgrass; 62 g ai/ha): 70 | Plant response rating: Windgrass (windgrass; 125 g ai/ha): 70 | Ragweed plant response rating (0 to 100) (ragweed [3]; 31 g ai/ha): 50 | Ragweed plant response rating (0 to 100) (ragweed [3]; 62 g ai/ha): 50 | Plant response rating (scale of 0 to 100 where 0 is no effect and 100 is complete control) (ragweed [3]; 125 g ai/ha): 98 | Plant response rating (scale of 0 to 100 where 0 is no effect and 100 is complete control) (ragweed [3]; 250 g ai/ha): 98 | Plant response rating (0 to 100), Canarygrass (canarygrass; [7]): 35 | Plant response rating: Canarygrass (canarygrass; 31 g ai/ha): 55 | Plant response rating: Canarygrass (canarygrass; 62 g ai/ha): 75 | Plant response rating: Canarygrass (canarygrass; 125 g ai/ha): 98 | Plant response rating (0 to 100), Galium (galium [4]; [7]): 70 | Plant response rating: Galium (galium [4]; 62 g ai/ha): 100 | Plant response rating: Galium (galium [4]; 125 g ai/ha): 100 | Plant response rating: Ryegrass, Ital. (ryegrass, Ital.; 16 g ai/ha): 15 | Plant response rating: Ryegrass, Ital. (ryegrass, Ital.; 31 g ai/ha): 20 | Plant response rating: Ryegrass, Ital. (ryegrass, Ital.; 62 g ai/ha): 35 | Plant response rating: Ryegrass, Ital. (ryegrass, Ital.; 125 g ai/ha): 60 | Plant response rating: Field Poppy (field poppy [5]; 16 g ai/ha): 75 | Plant response rating: Field Poppy (field poppy [5]; 31 g ai/ha): 80 | Plant response rating: Field Poppy (field poppy [5]; 62 g ai/ha): 85 | Plant response rating: Field Poppy (field poppy [5]; 125 g ai/ha): 100 | Plant response rating (scale of 0 to 100 where 0 is no effect and 100 is complete control) (galium [6]; 125 g ai/ha): 95 | Plant response rating (scale of 0 to 100 where 0 is no effect and 100 is complete control) (galium [6]; 250 g ai/ha): 95 | Galium plant response rating (0 to 100) (galium [6]; 31 g ai/ha): 90 | Galium plant response rating (0 to 100) (galium [6]; 62 g ai/ha): 95 | Plant response rating: Oat, Wild (oat, wild; 16 g ai/ha): 35 | Plant response rating: Oat, Wild (oat, wild; 31 g ai/ha): 45 | Plant response rating: Oat, Wild (oat, wild; 62 g ai/ha): 50 | Plant response rating: Oat, Wild (oat, wild; 125 g ai/ha): 60
